Read-outs that look alike come from different tables or passages of the source.
Tests used:
IL-6 = assay: Inhibition of IL-6 production by stimulated human peripheral blood leukocytes in vitro; format: cell-based; conditions: Homo sapiens, Leukocyte, read-out: Percentage of inhibition of IL-6 production
Summary of the method: (§1)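 Values are percentage inhibition of cytokine release versus stimulated leukocytes lacking compound. Human blood leukocytes received 50 μM or 10 μM compound for 2 h before overnight LPS, PMA or zymosan stimulation, and supernatants were assayed by ELISA.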

Hep G2 = assay: Cytotoxicity assay (MTT), Hep G2 cell line; format: cell-based; conditions: 24 h
Summary of the method: (§2)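 Viability was read as MTT-formazan absorbance at 490 nm after 0.5-2 h with reagent. This followed 24 h compound exposure (50 μM, 12.5 μM) at 37° C in RPM medium. Result expressed as OD490 treated over untreated cells ×100.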

TNF-α [1] = assay: Inhibition of TNF-α production by stimulated human peripheral blood leukocytes in vitro; format: cell-based; conditions: Homo sapiens, Leukocyte, read-out: Percentage of inhibition of TNF-α production
Summary of the method: as §1

TNF-α [2] = assay: Lipopolysaccharide induced TNF-α production in Balb/cJ mice; format: in vivo; conditions: Mus musculus, ip, 1.5 h; 10 mg/kg intraperitoneally, 30 min before LPS; 90 min after LPS; read-out: % inhibition of TNF-α production (plasma)
IL-8 = assay: Inhibition of IL-8 production by stimulated human peripheral blood leukocytes in vitro; format: cell-based; conditions: Homo sapiens, Leukocyte, read-out: Percentage of inhibition of IL-8 production
Summary of the method: as §1

A549 = assay: Cytotoxicity assay (MTT), A549 cell line; format: cell-based; conditions: 24 h
Summary of the method: as §2

[3] = test system: human peripheral blood mononuclear cells (PBMC); assay: Effects on human T-cell proliferation in vitro (3H-thymidine incorporation); format: cell-based; conditions: Homo sapiens, PBMC, read-out: Percentage of inhibition of proliferation of stimulated PBMC
Summary of the method: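 Proliferation of human peripheral blood mononuclear cells (PBMC) was assessed in the presence of test compounds. During the final 18 h of culture each well received 1 μCi of ^3H-thymidine. Cells were then collected onto a 96-well filter with a multiple cell harvester, and ^3H-thymidine incorporation was counted on a TopCount NXT to give percentage inhibition of proliferation.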

IL-1α = assay: Inhibition of IL-1 production by stimulated human peripheral blood leukocytes in vitro; format: cell-based; conditions: Homo sapiens, Leukocyte, read-out: Percentage of inhibition of IL-1α production

Compound	inhibition at 10 µM (IL-6; LPS-stimulated PBL) [%]	inhibition at 10 µM (IL-6; PMA-stimulated PBL) [%]	inhibition at 10 µM (IL-6; zymosan-stimulated PBL) [%]	inhibition at 50 µM (IL-6; LPS-stimulated PBL) [%]	inhibition at 50 µM (IL-6; PMA-stimulated PBL) [%]	inhibition at 50 µM (IL-6; zymosan-stimulated PBL) [%]	Percentage of inhibition of cell growth (Hep G2; 12.5 μM) [%]	Percentage of inhibition of cell growth (Hep G2; 50 μM) [%]	inhibition at 10 µM (TNF-α [1]; LPS-stimulated PBL) [%]	inhibition at 10 µM (TNF-α [1]; PMA-stimulated PBL) [%]	inhibition at 10 µM (TNF-α [1]; zymosan-stimulated PBL) [%]	inhibition at 50 µM (TNF-α [1]; LPS-stimulated PBL) [%]	inhibition at 50 µM (TNF-α [1]; PMA-stimulated PBL) [%]	inhibition at 50 µM (TNF-α [1]; zymosan-stimulated PBL) [%]	inhibition in vivo at 10 mg/kg (TNF-α [2]) [%]	inhibition at 10 µM (IL-8; LPS-stimulated PBL) [%]	inhibition at 10 µM (IL-8; PMA-stimulated PBL) [%]	inhibition at 10 µM (IL-8; zymosan-stimulated PBL) [%]	inhibition at 50 µM (IL-8; LPS-stimulated PBL) [%]	inhibition at 50 µM (IL-8; PMA-stimulated PBL) [%]	also measured
CC[C@H]1OC(=O)[C@H](C)[C@@H](O[C@H]2C[C@@](C)(OC)[C@@H](OC(=O)CCN(CC)CC)[C@H](C)O2)[C@H](C)[C@@H](O[C@@H]2O[C@H](C)C[C@H](N(C)C)[C@H]2O)[C@](C)(O)C[C@@H](C)CN(C)[C@H](C)[C@@H](O)[C@]1(C)O [Example 48, 4″-O-(3-diethylamino-propionyl)-azithromycin]	57	30	73	97	84	97	0	9	49	31	82	87	90	97	52	36	25	49	85	83	inhibition at 50 µM (IL-8; zymosan-stimulated PBL): 90%; Percentage of inhibition of cell growth (A549; 12.5 μM): 0%; Percentage of inhibition of cell growth (A549; 50 μM): 0%; inhibition at 10 µM ([3]; PHA): 93%; inhibition at 50 µM ([3]; PHA): 100%; inhibition at 10 µM ([3]; PMA + iono.): 81%; inhibition at 50 µM ([3]; PMA + iono.): 100%; inhibition at 10 µM (IL-1α; LPS-stimulated PBL): 64%; inhibition at 10 µM (IL-1α; PMA-stimulated PBL): 38%; inhibition at 10 µM (IL-1α; zymosan-stimulated PBL): 85%; inhibition at 50 µM (IL-1α; LPS-stimulated PBL): 79%; inhibition at 50 µM (IL-1α; PMA-stimulated PBL): 78%; inhibition at 50 µM (IL-1α; zymosan-stimulated PBL): 92%
CC[C@H]1OC(=O)[C@H](C)[C@@H](O[C@H]2C[C@@](C)(OC)[C@@H](OC(=O)CCN3CCN(CCN(C)C)CC3)[C@H](C)O2)[C@H](C)[C@@H](O[C@@H]2O[C@H](C)C[C@H](N(C)C)[C@H]2O)[C@](C)(OC)C[C@@H](C)C(=O)N[C@H](C)[C@@H](O)[C@]1(C)O [Example 17]	9	37	33	14	55	60	5	2	13	46	30	21	67	46	84	4	21	20	6	13	inhibition at 50 µM (IL-8; zymosan-stimulated PBL): 13%; Percentage of inhibition of cell growth (A549; 12.5 μM): 5%; Percentage of inhibition of cell growth (A549; 50 μM): 2%; inhibition at 10 µM ([3]; PHA): 0%; inhibition at 50 µM ([3]; PHA): 70%; inhibition at 10 µM ([3]; PMA + iono.): 3%; inhibition at 50 µM ([3]; PMA + iono.): 49%; inhibition at 10 µM (IL-1α; LPS-stimulated PBL): 25%; inhibition at 10 µM (IL-1α; PMA-stimulated PBL): 55%; inhibition at 10 µM (IL-1α; zymosan-stimulated PBL): 58%; inhibition at 50 µM (IL-1α; LPS-stimulated PBL): 44%; inhibition at 50 µM (IL-1α; PMA-stimulated PBL): 75%; inhibition at 50 µM (IL-1α; zymosan-stimulated PBL): 90%
CC[C@H]1OC(=O)[C@H](C)[C@@H](O[C@H]2C[C@@](C)(OC)[C@@H](OC(=O)CCN(CC)CC)[C@H](C)O2)[C@H](C)[C@@H](O[C@@H]2O[C@H](C)C[C@H](N(C)C)[C@H]2O)[C@](C)(O)C[C@@H](C)CN(C)[C@H](C)[C@H]2OC(=O)O[C@@]21C [Example 1, 11,12-Carbonate-11,12-dideoxy-4″-O-(3-diethylamino-propionyl)-azithromycin]	10	0	29	94	96	100	0	15	54	0	88	100	94	100	64	0	0	29	97	100	inhibition at 50 µM (IL-8; zymosan-stimulated PBL): 100%; Percentage of inhibition of cell growth (A549; 12.5 μM): 0%; Percentage of inhibition of cell growth (A549; 50 μM): 3%; inhibition at 10 µM ([3]; PHA): 95%; inhibition at 50 µM ([3]; PHA): 99%; inhibition at 10 µM ([3]; PMA + iono.): 90%; inhibition at 50 µM ([3]; PMA + iono.): 96%; inhibition at 10 µM (IL-1α; LPS-stimulated PBL): 67%; inhibition at 10 µM (IL-1α; PMA-stimulated PBL): 0%; inhibition at 10 µM (IL-1α; zymosan-stimulated PBL): 73%; inhibition at 50 µM (IL-1α; LPS-stimulated PBL): 93%; inhibition at 50 µM (IL-1α; PMA-stimulated PBL): 84%; inhibition at 50 µM (IL-1α; zymosan-stimulated PBL): 83%
